Assay results from ChEMBL document CHEMBL1122772, “Bis(3,5-diisopropylsalicylato)copper(II), a potent radioprotectant with superoxide dismutase mimetic activity” (J Med Chem, 1984).

Key:
Format in all cases: functional, organism-based
Mus musculus [1] = species: Mus musculus; test: Percent reactivity in disproportionating diffusion controlled disproportionation of superoxide
Mus musculus [2] = species: Mus musculus; test: Concentration required for 50% inhibition of superoxide reduction of nitroblue tetrazolium.
Mus musculus [3] = species: Mus musculus; test: Rate of diffusion-controlled disproportionation of superoxide

| Substance | Reactivity (Mus musculus [1]) | Concentration (Mus musculus [2]) | Rate (Mus musculus [3]) |
| --- | --- | --- | --- |
| bis(2-Hydroxy-benzoic acid)copper(II) | 0.65% | 4.6 µM | 1.6e+09 M⁻¹ s⁻¹ |
| bis(2-Hydroxy-3,5-diisopropyl-benzoic acid)copper(II)(bis(3,5-diisopropylsalicylato)copper(II)) | 0.7% | 2.9 µM | 2e+09 M⁻¹ s⁻¹ |
